Like-named read-outs stand apart in the source and are kept apart here.
Test system: IL-1β production in PMA-differentiated THP-1 cells
Assay: IL-1β production in PMA-differentiated THP-1 cells stimulated with gramicidin (hTHP-1 assay, 2% bovine serum; Bioassays 1 and 2)
Type: cell-based, human
Settings: hTHP-1 assay containing 2% bovine serum, read-out: Average IC50 of compounds in hTHP-1 assay
Description: IL-1β Production in PMA-Differentiated THP-1 Cells Stimulated with Gramicidin.
Cell culture-THP-1 cells were purchased from the American Type Culture Collection and sub-cultured according to instructions from the supplier. Prior to experiments, cells were cultured in RPMI 1640 containing 10% heat inactivated FBS, penicillin (100 units/ml) and streptomycin (100 μg/ml), and maintained in log phase prior to experimental setup. Prior to the experiment THP-1 were treated with PMA (Phorbol 12-myristate 13-acetate) (10 μg/ml) for 24 hours. The day of the experiment the media was removed and attaching cells were treated with trypsin for 2 minutes, cells were then collected, washed with PBS (phosphate buffer saline), spin down, resuspended in 2% heat inactivated FBS with RPMI at a concentration of 1×10^6 cells/ml, and 100 ul was plated in a 96 well plate. Cells were incubated with compounds for 1 hours and then stimulated with Gramicidin (5 μM) (Enzo) for 2 hours. Cell free supernatant was collected and the production of IL-1β was evaluated by ELISA. Compounds were dissolved in dimethyl sulfoxide (DMSO) and added to the culture medium to achieve desired concentration (e.g. 100, 30, 10, 3, 1, 0.3 or 0.1 μM). A vehicle only control was run concurrently with each experiment. Final DMSO concentration was 1%.
THP-1 cells were purchased from the American Type Culture Collection and sub-cultured according to instructions from the supplier. Prior to experiments, cells were cultured in complete RPMI 1640 (containing 10% heat inactivated FBS, penicillin (100 units/ml) and streptomycin (100 μg/ml)), and maintained in log phase prior to experimental setup. Prior to the experiment THP-1 were treated with PMA (Phorbol 12-myristate 13-acetate) (20 ng/ml) for 16-18 hours. On the day of the experiment the media was removed and adherent cells were detached with trypsin for 5 minutes. Cells were then harvested, washed with complete RPMI 1640, spun down, resuspended in RPMI 1640 (containing 2% heat inactivated FBS, penicillin (100 units/ml) and streptomycin (100 μg/ml). The cells were plated in a 384-well plate at a density of 50,000 cells/well (final assay volume 50 μl). Compounds were dissolved in dimethyl sulfoxide (DMSO) and added to the culture medium to achieve desired concentration (e.g. 100, 33, 11, 3.7, 1.2, 0.41, 0.14, 0.046, 0.015, 0.0051, 0.0017 μM). Cells were incubated with compounds for 1 hour and then stimulated with gramicidin (5 μM) (Enzo) for 2 hours. Cell free supernatant was collected and the production of IL-10 was evaluated by HTRF (cisbio). A vehicle only control was run concurrently with each experiment. Final DMSO concentration was 0.38%.
Compounds tested with protocols 1 and 2 provided IC50 values that are within the variability of the assay.
Tables 12 and 13 show the biological activity of compounds in hTHP-1 assay containing 2% bovine serum: <1 μM=“++++”; ≥1 and <5 μM=“+++”; ≥5 and <15 μM=“++”; ≥15 and <60 μM=“+”.

[1] = Homo sapiens, THP-1, Table 12, by Example #

| SMILES | IC50 [1] [µM] | other results |
| --- | --- | --- |
| Cc1oc(S(=O)(=O)NC(=O)Cc2c(C(C)C)cc(F)cc2C(C)C)cc1C(C)(C)O [Example 18, 2-(4-fluoro-2,6-diisopropylphenyl)-N-(4-(2-hydroxypropan-2-yl)-5-methylfuran-2-ylsulfonyl)acetamide] | 1 to 5 | – |
| CC(C)c1cc(F)cc(C(C)C)c1CC(=O)NS(=O)(=O)c1ncc(C(C)(C)O)s1 [Example 89, 2-(4-Fluoro-2,6-diisopropylphenyl)-N-(5-(2-hydroxypropan-2-yl)thiazol-2-ylsulfonyl)acetamide] | 1 to 5 | – |
| CC(C)(O)c1cnc(S(=O)(=O)NC(=O)Cc2cc(C(F)(F)F)ccc2Cl)s1 [Example 87, 2-(2-chloro-5-(trifluoromethyl)phenyl)-N-(5-(2-hydroxypropan-2-yl)thiazol-2-ylsulfonyl)acetamide] | 15 to 60 | – |
| CC(C)c1ccc(F)c(C(C)C)c1CC(=O)NS(=O)(=O)c1ccc(C(C)(C)O)cc1 [Example 43, 2-(3-fluoro-2,6-diisopropylphenyl)-N-(4-(2-hydroxypropan-2-yl)phenylsulfonyl)acetamide] | 1 to 5 | – |
| CC(C)c1cc(C#N)cc(C(C)C)c1CC(=O)NS(=O)(=O)c1cc(C(C)(C)O)cs1 [Example 10, 2-(4-cyano-2,6-diisopropylphenyl)-N-(4-(2-hydroxypropan-2-yl)thiophen-2-ylsulfonyl)acetamide] | < 1 | – |
| CC(C)c1cccc(C(C)C)c1CC(=O)NS(=O)(=O)c1cc(C(C)(C)O)n(-c2ccccc2)n1 [Example 63, 2-(2,6-diisopropylphenyl)-N-(5-(2-hydroxypropan-2-yl)-1-phenyl-1H-pyrazol-3-ylsulfonyl)acetamide] | 5 to 15 | – |
| CC(C)(O)c1cnc(S(=O)(=O)NC(=O)Cc2c3c(c(Cl)c4c2CCC4)CCC3)s1 [Example 5, 2-(8-Chloro-1,2,3,5,6,7-hexahydros-indacen-4-yl)-N-(5-(2-hydroxypropan-2-yl)thiazol-2-ylsulfonyl)acetamide] | 15 to 60 | – |
| CC(C)c1cc(F)cc(C(C)C)c1CC(=O)NS(=O)(=O)c1cc(C(C)(C)O)cc(C(C)(C)O)c1 [Example 30, N-(3,5-bis(2-hydroxypropan-2-yl)phenylsulfonyl)-2-(4-fluoro-2,6-diisopropylphenyl)acetamide] | 5 to 15 | – |
| Cc1cc(S(=O)(=O)NC(=O)Cc2c(C(C)C)cc(F)cc2C(C)C)ccc1C(C)(C)O [Example 47, 2-(4-fluoro-2,6-diisopropylphenyl)-N-(4-(2-hydroxypropan-2-yl)-3-methylphenylsulfonyl)acetamide] | 1 to 5 | – |
| CC(C)c1cc(F)cc(C(C)C)c1CC(=O)NS(=O)(=O)c1ccc(S(F)(F)(F)(F)F)cc1 [Example 39] | – | IC50 (Table 12, by Example #): 15 to 60 µM |
| CC(C)c1cccc(C(C)C)c1CC(=O)NS(=O)(=O)c1cc(-c2ccccc2)cc(C(C)(C)O)c1 [Example 23, 2-(2,6-diisopropylphenyl)-N-(5-(2-hydroxypropan-2-yl)biphenyl-3-ylsulfonyl)acetamide] | 1 to 5 | – |
| CC(C)c1cc(C#N)cc(C(C)C)c1CC(=O)NS(=O)(=O)c1cc(C(C)(C)O)n(C)n1 [Example 68, 2-(4-cyano-2,6-diisopropylphenyl)-N-(5-(2-hydroxypropan-2-yl)-1-methyl1H-pyrazol-3-ylsulfonyl)acetamide] | 5 to 15 | – |
| Cc1c(C(C)(C)O)cccc1S(=O)(=O)NC(=O)Cc1c(C(C)C)cc(F)cc1C(C)C [Example 44, 2-(4-fluoro-2,6-diisopropylphenyl)-N-(3-(2-hydroxypropan-2-yl)-2-methylphenylsulfonyl)acetamide] | 5 to 15 | – |
| CC(C)c1cc(F)cc(C(C)C)c1CC(=O)NS(=O)(=O)c1cc(F)cc(C(C)(C)O)c1 [Example 51, 2-(4-fluoro-2,6-diisopropylphenyl)-N-(3-fluoro-5-(2-hydroxypropan-2-yl)phenylsulfonyl)acetamide] | 5 to 15 | – |
| CC(C)c1cc(C#N)cc(C(C)C)c1CC(=O)NS(=O)(=O)c1ncc(C(C)(C)O)s1 [Example 6, 2-(4-cyano-2,6-diisopropylphenyl)-N-(5-(2-hydroxypropan-2-yl)thiazol-2-ylsulfonyl)acetamide] | 1 to 5 | – |
| CC(C)c1cc(C#N)cc(C(C)C)c1CC(=O)NS(=O)(=O)c1nc(C(C)(C)O)cs1 [Example 82, 2-(4-cyano-2,6-diisopropylphenyl)-N-(4-(2-hydroxypropan-2-yl)thiazol-2-ylsulfonyl)acetamide] | 15 to 60 | – |
| CC(C)(O)c1coc(S(=O)(=O)NC(=O)Cc2c3c(cc4c2CCC4)CCC3)c1 [Example 1, 2-(1,2,3,5,6,7-Hexahydros-indacen-4-yl)-N-(4-(2-hydroxypropan-2-yl)furan-2-ylsulfonyl)acetamide] | 5 to 15 | – |
| CC(C)c1cc(F)cc(C(C)C)c1CC(=O)NS(=O)(=O)c1cc(-c2ccncc2)cc(C(C)(C)O)c1 [Example 29, 2-(4-fluoro-2,6-diisopropylphenyl)-N-(3-(2-hydroxypropan-2-yl)-5-(pyridin-4-yl)phenylsulfonyl)acetamide] | 15 to 60 | – |
| CC(C)c1cc(F)cc(C(C)C)c1CC(=O)NS(=O)(=O)c1cnc2ccccc2c1 [Example 40, 2-(4-fluoro-2,6-diisopropylphenyl)-N-(quinolin-3-ylsulfonyl)acetamide] | 15 to 60 | – |
| CC(C)c1cc(C#N)cc(C(C)C)c1CC(=O)NS(=O)(=O)c1cc(C(C)(C)O)n(-c2ccccc2)n1 [Example 65, 2-(4-cyano-2,6-diisopropylphenyl)-N-(5-(2-hydroxypropan-2-yl)-1-phenyl-1H-pyrazol-3-ylsulfonyl)acetamide] | 5 to 15 | – |
| CC(C)c1cc(F)cc(C(C)C)c1CC(=O)NS(=O)(=O)c1cc(C(C)(C)O)n(C)n1 [Example 67, 2-(4-fluoro-2,6-diisopropylphenyl)-N-(5-(2-hydroxypropan-2-yl)-1-methyl-1H-pyrazol-3-ylsulfonyl)acetamide] | 1 to 5 | – |
| CC(C)c1cc(C#N)cc(C(C)C)c1CC(=O)NS(=O)(=O)c1ncc(C(C)O)s1 (stereo not drawn) [Example 93, 2-(4-cyano-2,6-diisopropylphenyl)-N-(5-(1-hydroxyethyl)thiazol-2-ylsulfonyl)acetamide] | 1 to 5 | – |
| CC(C)c1cc(F)cc(C(C)C)c1CC(=O)NS(=O)(=O)c1ncc(CCO)s1 [Example 97, 2-(4-fluoro-2,6-diisopropylphenyl)-N-(5-(2-hydroxyethyl)thiazol-2-ylsulfonyl)acetamide] | 5 to 15 | – |
| CC(C)c1cc(F)cc(C(C)C)c1CC(=O)NS(=O)(=O)c1cc(-c2ccccc2)cc(C(C)(C)O)c1 [Example 32, 2-(4-fluoro-2,6-diisopropylphenyl)-N-(5-(2-hydroxypropan-2-yl)biphenyl-3-ylsulfonyl)acetamide] | 5 to 15 | – |
| CC1(c2ccc(F)c(S(=O)(=O)NC(=O)Cc3c4c(c(F)c5c3CCC5)CCC4)c2)OCCO1 [Example 57, 2-(8-fluoro-1,2,3,5,6,7-hexahydros-indacen-4-yl)-N-(2-fluoro-5-(2-methyl-1,3-dioxolan-2-yl)phenylsulfonyl)acetamide] | 15 to 60 | – |
| CC(C)c1cc(F)cc(C(C)C)c1CC(=O)NS(=O)(=O)c1ccc(CN(C)C)cc1 [Compound 214] | – | IC50 (Homo sapiens, THP-1, Table 13, by Final Target Number): < 1 µM |
| CC(C)c1cc(F)cc(C(C)C)c1CC(=O)NS(=O)(=O)c1cccc(C(C)(C)O)c1 [Example 25, 2-(4-fluoro-2,6-diisopropylphenyl)-N-(3-(2-hydroxypropan-2-yl)phenylsulfonyl)acetamide] | 1 to 5 | – |

From patent publication US11447460B2, “Compounds and compositions for treating conditions associated with NLRP activity” (Novartis AG, priority 2016, dated 2022)
